According to US20100099109A1, “Methods for Analyzing Drug Response” (NODALITY, INC., A DELAWARE CORPORATION, priority 2008, published 2010):
Entries after “also recorded” stand apart in the source; their conditions may differ.

How the values were obtained:
[1] = system: Ramos cells; test: Mylotarg exposure, multiparameter flow cytometry of DNA damage and cell cycle; assay type: cell-based
From the text: (§1) ATM activity also phosphorylates Chk2 and p53. […] Cyclin B1 is produced during the G2 phase of the cell cycle and its accumulation drives the cell cycle into M phase. Therefore, low levels of Cyclin B1 mark G1 and S phases, high levels mark G2 phase, and higher levels mark M phase. Histone H3 (S28) becomes phosphorylated in M phase, making p-Histone H3(S28) a useful marker of cells in M phase and not G2. It is also possible to monitor the G2/M phases of the cell cycle by measuring the phosphorylation status of Cdk1, previously known as Cdc2, a cyclin-dependent protein kinase that controls the cell cycle entry from G2 to M phase. An inhibitory phosphorylation on Cdk1 is removed by CDC25C in the M phase transition, allowing G2 cells to be distinguished from M cells based on levels of p-Cdk1. […] Treating cells with the microtubule polymerization inhibitor Nocodazole induces cells cycle arrest in M phase without DNA damage.
The experimental measurements included forward and side scatter, the use of viability dyes (amine aqua and propidium iodide (PI)), and determination of cell cycle and apoptosis by measuring DNA content with DRAQ5. Additionally, cell cycle progression was measured by determining levels of cyclin B1, phosphorylated histone H3, and phosphorylated CDK-1. All these determinations were made in freshly thawed as well as in cultured cycling cells. […]

[2] = system: primary AML cell sample; test: Mylotarg response signatures (DNA damage response by p-CHK2/p-H2AX; apoptosis by cleaved PARP, FSC and viability dyes), flow cytometry; assay type: cell-based, human
Description: The present illustrative example represents how to analyze cells in one embodiment of the present invention. There are several steps in the process, such as treatment with modulator, incubation with antibodies, and processing sample for acquisition of cells on the cytometer. Treatment with modulator(s) can start with thawed cryopreserved cells and end with cells fixed in PFA and permeabilized in methanol. Then the cells can be incubated with an antibody directed to a particular protein of interest and then analyzed using a flow cytometer. A protocol similar to the following was used to analyze AML cells from patient samples. The materials and methods described in this example can be used and/or were used in the other examples described below.
Cell thawing and live/dead staining: Cells are thawed_in a 37° C. water bath, gently resuspend in the vial, and transferred to a 15 mL conical tube. The 15 mL tube is centrifuged at 930 RPM (200×g) for 8 minutes at room temperature. The supernatant is then aspirated, and the pellet is gently resuspended in 1 mL media A. The cell suspension is filtered through a 70 um cell strainer into a new 15 mL tube. The cell strainer is then rinsed with 1 mL media A and another 12 mL of media A into the 15 mL tube. Collected cells are then mixed into an even suspension. A 20 μl, aliquot of this suspension is immediately transferred into a 96-well plate containing 180 μl, PBS+4% FBS+CD45 Alexa 700+PI to determine cell count and viability post spin. After the determination, the 15 mL tubes are centrifuged at 930 RPM (200×g) for 8 minutes at room temperature. The resulting supernatant is aspirated, and the cells are gently resuspended in 4 mL PBS+4 μl, Amine Aqua (another equivalent viability dye can be used instead) and incubated for 15 min in a 37° C. incubator. 10 mL RPMI+1% FBS are added to the cell suspension, followed by inversion mixing. The 15 mL tubes are centrifuged at 930 RPM (200×g) for 8 minutes at room temperature. The stained cells are then resuspended in Media A at the desired cell concentration (1.25×10^6/mL). • a. Samples with low numbers of cells (<18.5×10^6) are resuspend in up to 15 mL of media. • b. For samples with high numbers of cells (>18.5×10^6), the volume is raised to 10 mL with media A and the desired volume is transferred to a new 15 mL tube, adjusting the cell concentration to 1.25×10^6 cells/mL. 1.6 mL of the above cell suspension are then transferred into wells of a multi-well plate, from which 80 ul are distributed into each well of a subsequent plate. Plates are covered with a lid (Nunc) and placed in a 37° C. incubator for 2 hours to rest.
Treatment of Cells with a Modulator: A concentration for each stimulant that is five fold (5×) more than the final concentration is prepared using Media A as diluent. The 5× stimulants are arrayed in a standard 96 well v-bottom plate that correspond to the wells on the plate with cells to be stimulated. Fixative is prepared by dilution of stock 16% paraformaldehyde with PBS to a concentration that is 1.5×, then placed in a 37° C. water bath. Once the plated cells have completed their incubation, the plate(s) are taken out of the incubator and place in a 37° C. water bath next to the pipette apparatus. Prior to addition of stimulant, each plate of cells is taken from the water bath and gently swirled to resuspend any settled cells. The stimulant is pipetted into the cell plate, which is then held over a vortexer set to “7” and mixed for 5 seconds, and followed by the return of the deep well plate to the water bath.
Fixing Cells: 200 μL of the fixative solution (final concentration is 1.6%) is dispensed into wells and then mixed on the titer plate shaker on high for 5 seconds. The plate is then covered with foil sealer and floated in 37° C. water bath for 10 min, followed by a 6 min spin at 2000 rpm at room temperature.

[3] = lyophilized powder; cited from earlier work
[4] = system: Mylotarg refractory cell lines; test: Mylotarg exposure and modulated signaling in resistant cell lines; assay type: cell-based
Description: (§2) The experimental measurements included forward and side scatter, the use of viability dyes (amine aqua and propidium iodide (PI)), and determination of cell cycle and apoptosis by measuring DNA content with DRAQ5. Additionally, cell cycle progression was measured by determining levels of cyclin B1, phosphorylated histone H3, and phosphorylated CDK-1. All these determinations were made in freshly thawed as well as in cultured cycling cells.
(§3) After incubation with fluorochrome-conjugated antibody panels that recognized: p-H2AX, p-Chk2, p-ATM, p-53, cleaved PARP and cleaved caspase 3, cells were processed for cytometry as described above.
(§4) Experiments were conducted in which cell lines were exposed for 5-15 minutes to growth factors and cytokines, after which cells were fixed, permeabilized and incubated with panels of fluorochrome-conjugated antibody panels that recognized intracellular signaling molecules. After processing, cells were acquired on the cytometer.

[5] = system: Peripheral blood mononuclear cells and bone marrow mononuclear cells derived from AML and healthy samples; test: Expression marker levels after Mylotarg exposure; assay type: cell-based
[6] = system: KG-1 cells; test: Mylotarg exposure, multiparameter flow cytometry of DNA damage, cell cycle and apoptosis; assay type: cell-based
From the text: as §1, §2
(§5) The experiments were conducted in a similar fashion as shown above for examples 1 and 2. […] After incubation with fluorochrome-conjugated antibody panels that recognized: p-H2AX, p-Chk2, p-ATM, p-53, cleaved PARP and cleaved caspase 3, cells were processed for cytometry as described above.

[7] = system: GDM-1 cells; test: as above; assay type: cell-based
From the text: as §1, §2, §5

[8] = system: Mylotarg sensitive cell lines; test: Mylotarg exposure and modulated signaling in sensitive cell lines; assay type: cell-based
Description: as §2, §3, §4

[9] = system: Healthy myeloid cells; test: Mylotarg treatment of healthy myeloid cells (DNA damage and apoptosis); assay type: cell-based; conditions: at 72 h
From the text: In some embodiments, the invention may identify a set of drug response signatures in disease cells. The drug response signature is a profile of the activation levels of activatable elements following in vitro exposure of patient samples to a drug and one or more modulators, and can predict whether patients may respond to the drug. […] In some embodiments, other measurements of cell viability may be used, for example cleaved caspase 3, or amount of dyes staining or other stains, for example: propidium idodide, SYTOX, TUNEL, or acridine orange. […] For review, see van Attikum H., and Gasser S. M. Trends in Cell Biology 19: pp. 207-17 (2009). ATR and ATM kinase activity in response to DNA damage activates Chk1 and Chk2, respectively. […] For review, see Abraham, R. T. Cell cycle checkpoint signaling through the ATM and ATR kinases. Genes & Dev. 15: 2177-96 (2001). […] This is also seen at earlier timepoints.

[10] = system: U937 cell line; test: Mylotarg/Nocodazole exposure, multiparameter flow cytometry of DNA damage, cell cycle and apoptosis; assay type: cell-based
From the text: as §1, §2, §3

## gemtuzumab ozogamicin [Mylotarg]
[1]
  DNA damage response (levels of p-H2AX, p-p53, p-Chk2, p-ATM): does not induce changes
  proportion of populations of cells arrested in the cell cycle (p-Histone H3(S28), p-CDK1, CyclinB1): does not largely increase
[2]; signature 1 sample, 6 hours of exposure to Mylotarg
  CD33++ cells with induced DNA damage response, as measured by p-CHK2 and p-H2AX: approximately 60%
[2]; signature 1 sample, after 24 and 48 hours
  live myeloid cells becoming PARP+: 22%
[2]; signature 2 sample, 6 hours of exposure to Mylotarg
  CD33++ cells with induced DNA damage response, as measured by p-CHK2 and p-H2AX: approximately 80%
[2]; signature 2 sample, after 24 or 48 hours
  live myeloid cells becoming PARP+: 4%
[2]; signature 3 sample
  live myeloid cells becoming PARP+: 8%
[2]; signature 3 sample, 6 hours of exposure to Mylotarg
  CD33+ cells with induced DNA damage response, as measured by p-CHK2 and p-H2AX: approximately 15%
[3]
  light sensitivity of the drug product: light sensitive
[4]
  G2/M arrest: failure to undergo G2/M arrest
  cell death: only modest increase in cell death
  cyclin B1 levels: failure to increase cyclin B1 levels
  p-H2AX and p-Chk2: minimal increase in p-H2AX and p-Chk2
[5]; exposed for 6 hours
  expression levels of the CD33 and CD13 phenotypic markers for myeloid cells: reduction
[5]; same exposure conditions
  CD11b levels: remain unchanged
[5]; twenty-four (24) hours of exposure
  CD13 levels: reduced
[6]
  DNA damage response (levels of p-H2AX, p-p53, p-Chk2, p-ATM): does not induce changes; also recorded: this was not the case
  cell cycle arrest and apoptosis after Mylotarg treatment: resistant to cell cycle arrest and apoptosis
  proportion of populations of cells arrested in the cell cycle (p-Histone H3(S28), p-CDK1, CyclinB1): does not largely increase
[7]
  DNA damage response (levels of p-H2AX, p-p53, p-Chk2, p-ATM): does not induce changes; also recorded: this was not the case
  cell cycle arrest and apoptosis after Mylotarg treatment: resistant to cell cycle arrest and apoptosis
  proportion of populations of cells arrested in the cell cycle (p-Histone H3(S28), p-CDK1, CyclinB1): does not largely increase
[8]
  G2/M arrest: G2/M arrest
  cyclin B1 levels: increase in cyclin B1 levels; also recorded: increased cyclin B1 levels
  p-H2AX and p-Chk2: increased p-H2AX and p-Chk2 without transporter inhibitor
[8]; compared to refractory cell lines
  cell death (scatter, viability and DNA content dyes): more cell death; also recorded: increased percentage of dead cells
[9]
  cleaved PARP and apoptosis: increases in cleaved PARP and apoptosis
  levels of p-Chk2, p-H2AX, p-ATM, p-P53: increased levels
[10]
  DNA damage response (levels of p-H2AX, p-Chk2, p-ATM, p-53): increased levels; also recorded: significant increase
[10]; 24 hours exposure
  cell cycle arrest (Cyclin B1, p-Histone H3(S28), p-Cdk1): arrest at the G2/M checkpoint
[10]; 48 hours exposure
  cell cycle arrest (Cyclin B1, p-Histone H3(S28)): arrest at the G2/M checkpoint, and a minor cell population with increased p-histone H3(S28), indicating minor arrest in M phase
